Data on one compound can be found in patent US8664277B2, “Compounds and methods for PKCθ inhibition” (Complegen Partners, LLC, priority 2008, dated 2014).

Assay [1] has as its target T1, Human PKC theta (Homo sapiens, UniProt Q04759).
T1 construct: expressed in transfected cells; host or cells: yeast (XenoGene strain)
Nature of the assay: XenoGene yeast growth inhibition, yeast containing human PKC theta gene. It counts as cell-based. The text has this:
Using the XenoGene™ system described within, compounds inhibiting PKCθ are identified. The XenoGene™ system is a technology developed and patented by CompleGen wherein genes (“XenoGenes”™) from a target organism (e.g. humans) are used to functionally replace essential genes of a simple organism (yeast). These modified yeast are used to select compounds that act specifically on the protein encoded by the target gene and eliminate compounds that are not specific. […]

The target of assay [2] is T2, yeast PKC1 (Saccharomyces cerevisiae, UniProt P24583).
T2 construct: endogenous in cells; host or cells: yeast control strain
T2 sequence (P24583 1-1151): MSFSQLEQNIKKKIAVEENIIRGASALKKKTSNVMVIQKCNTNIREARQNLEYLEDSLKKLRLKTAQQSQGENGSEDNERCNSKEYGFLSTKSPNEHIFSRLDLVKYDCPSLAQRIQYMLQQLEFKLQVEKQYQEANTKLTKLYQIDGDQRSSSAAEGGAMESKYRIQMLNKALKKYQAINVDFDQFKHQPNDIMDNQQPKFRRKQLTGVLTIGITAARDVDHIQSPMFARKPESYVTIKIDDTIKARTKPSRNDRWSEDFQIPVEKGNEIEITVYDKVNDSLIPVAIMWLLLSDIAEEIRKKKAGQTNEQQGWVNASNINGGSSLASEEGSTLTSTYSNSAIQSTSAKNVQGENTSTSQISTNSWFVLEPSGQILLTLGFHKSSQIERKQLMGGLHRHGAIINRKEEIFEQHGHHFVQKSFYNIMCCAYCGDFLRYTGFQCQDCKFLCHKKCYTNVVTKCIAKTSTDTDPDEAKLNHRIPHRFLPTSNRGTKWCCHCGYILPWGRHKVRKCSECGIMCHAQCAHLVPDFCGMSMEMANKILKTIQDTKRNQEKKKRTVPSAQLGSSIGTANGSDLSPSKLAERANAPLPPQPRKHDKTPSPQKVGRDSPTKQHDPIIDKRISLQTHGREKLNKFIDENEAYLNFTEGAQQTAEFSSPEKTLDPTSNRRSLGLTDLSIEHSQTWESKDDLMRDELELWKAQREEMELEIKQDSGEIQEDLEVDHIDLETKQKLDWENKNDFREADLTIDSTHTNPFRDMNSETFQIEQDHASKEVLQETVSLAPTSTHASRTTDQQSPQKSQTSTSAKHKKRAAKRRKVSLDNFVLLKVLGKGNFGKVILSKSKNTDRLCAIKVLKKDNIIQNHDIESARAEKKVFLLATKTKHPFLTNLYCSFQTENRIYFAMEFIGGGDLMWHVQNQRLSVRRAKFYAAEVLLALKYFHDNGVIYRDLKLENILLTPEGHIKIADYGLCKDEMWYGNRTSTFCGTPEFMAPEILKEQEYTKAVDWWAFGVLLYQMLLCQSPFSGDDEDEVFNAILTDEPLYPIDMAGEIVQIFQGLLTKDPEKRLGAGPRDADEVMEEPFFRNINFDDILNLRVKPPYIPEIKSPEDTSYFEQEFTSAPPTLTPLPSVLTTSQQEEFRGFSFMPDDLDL
The assay is described as follows: XenoGene counter-screen, yeast PKC1. It counts as cell-based. The note with it: inverse of (PKC-theta IC50)/(PKC-X IC50). From the text: Using the XenoGene™ system described within, compounds inhibiting PKCθ are identified. The XenoGene™ system is a technology developed and patented by CompleGen wherein genes (“XenoGenes”™) from a target organism (e.g. humans) are used to functionally replace essential genes of a simple organism (yeast). These modified yeast are used to select compounds that act specifically on the protein encoded by the target gene and eliminate compounds that are not specific. XenoGene™ constructs provide a very high throughput screening system that allows identification of compounds active on the function of the target protein in a cell under physiological conditions on “first-pass” screening and further, to selectively counter-screen against 200 human targets or more if necessary. […] The relative potencies of the active compounds is determined by titration to find the concentration of compound providing 50% inhibition of growth (IC50) against the yeast containing the target gene (Table 1).
Human PKC theta gene (cDNA) was used to generate a XenoGene™ system as previously described (U.S. Pat. Nos. 6,998,261, 6,232,074), which was used to screen compounds in a chemical compound library. XenoGene™ systems used as counter-screens were constructed similarly using the gene for the appropriate counter-screen target. In particular, human genes (cDNA) encoding PKC delta, PKC eta and PKC epsilon were used to generate XenoGene™ systems.

Assay [3] concerns Mouse splenic T cells. Nature of the assay: Inhibition of naive T cell activation (anti-CD3/anti-CD28), 3H-TdR incorporation. It counts as cell-based. Conditions: three days, control without compound 31571. Here is the method:
Inhibition of naïve T cell activation by compound 471. Mouse splenic T cells were isolated from unimmunized mice by magnetic negative selection (Miltenyi®, Untouched T Cell Isolation Kit) or FACS using anti-CD3-PE-Cy7. Isolated T cells were incubated in microtiter wells coated with anti-CD3 monoclonal antibody and soluble anti-CD28 monoclonal antibody, 10^5 cells/100 μl in 10% FBS-RPMI as above, for three days. Proliferation was measured by ^3H-TdR incorporation.

Assay [4] deals with T cell lymphomas. Nature of the assay: Inhibition of T cell lymphomas, live cells counted by flow cytometry. Conditions: for EC50: Mus musculus, T-cell, 96 h, 4 days growth. It counts as cell-based, mouse. From the text:
The compounds of the present invention can also be screened for the ability to inhibit T cell lymphomas. Assays for inhibiting T cell lymphomas are known to one of skill in the art. In some embodiments, the assay involves mice generated from the nucleus of a mature T cell with a “fixed” rearranged T cell receptor. These T cells spontaneously generate T cell lymphomas which resemble human T cell lymphomas. T cell lymphomas isolated from the mice can then be treated with compounds of the present invention. After sufficient time to allow for cell growth, live cells are counted by flow cytometry (Serwold et al. (2007) J. Immunol. 179; 928). One of skill in the art will appreciate that other assays are useful in the present invention.
Mice generated from the nucleus of a mature T cell (see Hochedlinger K, Jaenisch R. (2002) Nature 415; 1035) with a “fixed” rearranged T cell receptor spontaneously generate T cell lymphomas which resemble human T cell lymphomas. Several T cell lymphomas (1-4) isolated from these mice were treated with compound 471. All T cell lymphomas were inhibited by compound 471. A B-cell hybridoma served as a non-T cell control and was not affected by the compound. Cells were seeded into 96-well plates (5,000 cells/well) in the presence of compound 471 at concentrations ranging from 0.1 to 5 uM. After 4 days growth (37° C., 5% CO2), live cells were counted by flow cytometry (Serwold et al. (2007) J. Immunol. 179; 928)
In general terms: In flow cytometry, cells or beads pass a laser one at a time.

Where two headings read alike, the source gives them in different places.

T1 sequence (Q04759 whole entry): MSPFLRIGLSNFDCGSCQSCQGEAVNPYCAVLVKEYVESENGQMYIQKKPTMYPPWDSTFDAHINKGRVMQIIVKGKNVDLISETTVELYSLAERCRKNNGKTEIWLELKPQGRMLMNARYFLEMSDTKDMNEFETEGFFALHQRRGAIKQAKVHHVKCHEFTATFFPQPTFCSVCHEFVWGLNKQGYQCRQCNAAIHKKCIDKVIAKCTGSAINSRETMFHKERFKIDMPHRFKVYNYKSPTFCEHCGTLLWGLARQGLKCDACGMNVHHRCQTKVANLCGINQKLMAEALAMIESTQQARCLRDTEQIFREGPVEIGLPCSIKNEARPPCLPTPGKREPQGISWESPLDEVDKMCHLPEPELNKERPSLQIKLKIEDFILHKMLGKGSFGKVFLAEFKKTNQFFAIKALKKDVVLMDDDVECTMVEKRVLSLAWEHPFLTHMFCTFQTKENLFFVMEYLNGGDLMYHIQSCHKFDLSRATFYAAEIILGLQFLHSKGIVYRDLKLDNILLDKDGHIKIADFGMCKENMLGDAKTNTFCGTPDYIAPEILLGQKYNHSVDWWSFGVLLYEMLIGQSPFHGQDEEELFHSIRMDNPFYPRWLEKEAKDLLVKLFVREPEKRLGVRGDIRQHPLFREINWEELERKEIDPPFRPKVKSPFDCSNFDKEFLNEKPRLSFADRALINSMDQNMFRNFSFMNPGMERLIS

By IC50 is commonly meant the point on the concentration scale where inhibition reaches its midpoint. As a reminder, the EC50 is the concentration needed to bring the measured effect to its halfway point. Low readings indicate a more potent agent, high ones a less potent agent. For `CC(C)(C)c1ccc(Oc2ccc(N)cc2)cc1` [Compound 471], the IC50 is < 1000 nM in assay [1] (50% inhibition of growth of yeast containing the target gene, read-out: IC50) and 140 nM in assay [1] (XenoGene system, read-out: PKC-theta IC50). Besides, in assay [2], the “Selectivity for PKC-theta v. yeast PKC1” value worked out at 28. The 3H-TdR cpm in assay [3] (0.5 uM compound) is 21928 cpm; in assay [3] (1.0 uM compound), 880 cpm. The EC50 was 700 nM in assay [4] (Lymphoma 1), 200 nM in assay [4] (Lymphoma 2), < 100 nM in assay [4] (Lymphoma 4) and 700 nM in assay [4] (Lymphoma 5). Moreover, in assay [4] (all T cell lymphomas, 0.1 to 5 uM), the “Inhibition of T cell lymphomas” value is on record as “inhibited”.
